Results reported in US8877778B2, “Benzofurane compounds” (Hoffmann-La Roche Inc., priority 2010, dated 2014).

Assays:
human D2 receptor = human D2 receptor (Homo sapiens (Human), UniProt P14416); assay: Radioligand binding ([3H]-spiperone) to cloned receptors expressed in HEK-293 EBNA cells; settings: HEK293 EBNA cell membranes expressing human D2
How it was run: (§1)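 Membranes from transiently transfected HEK293 EBNA cells incubated 1 h at RT with ten compound concentrations (10 μM–0.1 nM). D2/D3: [3H]-spiperone ~0.7/0.5 nM, Tris–NaCl–Mg/Ca buffer pH 7.4; 5-HT2A: [3H]-ketanserin 1.1 nM, Tris–MgCl2–EGTA pH 7.4.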

human D3 receptor = human D3 receptor (Homo sapiens (Human), UniProt P35462); assay: as above; settings: HEK293 EBNA cell membranes expressing human D3
Chain of human D3 receptor (P35462 whole entry): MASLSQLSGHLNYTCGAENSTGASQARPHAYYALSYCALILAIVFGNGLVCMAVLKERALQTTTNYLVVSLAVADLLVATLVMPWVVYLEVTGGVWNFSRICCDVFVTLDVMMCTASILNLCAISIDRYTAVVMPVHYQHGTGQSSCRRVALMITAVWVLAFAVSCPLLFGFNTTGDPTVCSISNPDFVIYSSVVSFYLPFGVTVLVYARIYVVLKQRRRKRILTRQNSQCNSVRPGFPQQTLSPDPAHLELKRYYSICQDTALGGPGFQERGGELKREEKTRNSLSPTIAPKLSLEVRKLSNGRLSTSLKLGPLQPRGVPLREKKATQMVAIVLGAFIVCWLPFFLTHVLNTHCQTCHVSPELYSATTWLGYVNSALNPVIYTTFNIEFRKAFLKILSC
How it was run: as §1

human 5-HT2A receptor = human 5-HT2A receptor (Homo sapiens (Human), UniProt P28223); assay: Radioligand binding ([3H]-ketanserin) to cloned receptors expressed in HEK-293 EBNA cells; settings: HEK293 EBNA cell membranes expressing human 5-HT2A
Chain of human 5-HT2A receptor (P28223 whole entry): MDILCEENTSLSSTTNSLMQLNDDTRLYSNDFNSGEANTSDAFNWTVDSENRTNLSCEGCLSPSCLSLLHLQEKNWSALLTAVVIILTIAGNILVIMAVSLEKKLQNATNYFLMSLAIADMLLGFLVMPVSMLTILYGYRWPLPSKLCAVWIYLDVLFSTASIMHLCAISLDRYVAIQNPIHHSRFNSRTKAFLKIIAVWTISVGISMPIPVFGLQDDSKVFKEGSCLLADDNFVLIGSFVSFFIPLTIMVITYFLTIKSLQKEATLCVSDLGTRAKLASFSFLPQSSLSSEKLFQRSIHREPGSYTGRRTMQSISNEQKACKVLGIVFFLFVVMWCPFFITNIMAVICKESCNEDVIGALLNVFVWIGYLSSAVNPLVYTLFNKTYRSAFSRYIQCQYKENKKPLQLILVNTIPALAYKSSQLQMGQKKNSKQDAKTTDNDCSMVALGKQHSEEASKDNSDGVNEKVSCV
How it was run: as §1

Chain of human D2 receptor (P14416 whole entry): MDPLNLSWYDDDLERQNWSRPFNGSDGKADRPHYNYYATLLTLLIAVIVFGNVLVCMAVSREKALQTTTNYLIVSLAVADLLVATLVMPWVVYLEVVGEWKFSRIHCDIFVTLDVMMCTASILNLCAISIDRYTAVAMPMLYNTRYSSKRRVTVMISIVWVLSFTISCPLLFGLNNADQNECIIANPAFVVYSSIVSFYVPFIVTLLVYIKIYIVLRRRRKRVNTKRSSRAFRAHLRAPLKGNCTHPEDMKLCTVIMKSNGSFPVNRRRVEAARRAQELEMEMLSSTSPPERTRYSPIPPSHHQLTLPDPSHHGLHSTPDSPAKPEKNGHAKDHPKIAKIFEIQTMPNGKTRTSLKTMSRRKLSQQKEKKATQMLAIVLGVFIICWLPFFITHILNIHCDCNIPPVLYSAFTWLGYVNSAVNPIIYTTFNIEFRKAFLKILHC

| Structure (SMILES) | Ki (human D2 receptor) | Ki (human D3 receptor) | Ki (human 5-HT2A receptor) | melting point | D2 Ki (human D2 receptor) |
| --- | --- | --- | --- | --- | --- |
| CC(C)(C)CC(=O)N[C@H]1CC[C@H](CCN2CCC(c3cccc4c3CCO4)CC2)CC1 [Example 59, trans-N-(4-{2-[4-(2,3-Dihydro-benzofuran-4-yl)-piperidin-1-yl]ethyl}-cyclohexyl)-3,3-dimethyl-butyramide] | 394 nM | 6 nM | 54.1 nM | 193 °C | – |
| O=C(CC1CCC1)N[C@H]1CC[C@H](CCN2CCC(c3cccc4c3CCO4)CC2)CC1 [Example 60, trans-2-Cyclobutyl-N-(4-{2-[4-(2,3-dihydro-benzofuran-4-yl)-piperidin-1-yl]-ethyl}-cyclohexyl)-acetamide] | 301 nM | 6.1 nM | 44.4 nM | 196 °C | – |
| O=C(N[C@H]1CC[C@H](CCN2CCC(c3cccc4c3CCO4)CC2)CC1)C1CC1(F)F (stereo partly drawn) [Example 61, 2,2-Difluoro-cyclopropanecarboxylic acid trans-(4-{2-[4-(2,3-dihydro-benzofuran-4-yl)-piperidin-1-yl]-ethyl}-cyclohexyl)-amide] | 236 nM | 9.6 nM | 51.9 nM | 199 °C | – |
| CN(C)C(=O)CCC(=O)N[C@H]1CC[C@H](CCN2CCC(c3cccc4c3CCO4)CC2)CC1 [Example 63, trans-N-(4-{2-[4-(2,3-Dihydro-benzofuran-4-yl)-piperidin-1-yl]ethyl}-cyclohexyl)-N′,N′-dimethyl-succinamide] | 1060 nM | 15.5 nM | 89.6 nM | 205 °C | – |
| CC(=O)N[C@H]1CC[C@H](CCN2CCC(c3ccc(F)c4occc34)CC2)CC1 [Example 64, trans-N-(4-{2-[4-(7-Fluoro-benzofuran-4-yl)-piperidin-1-yl]-ethyl}-cyclohexyl)-acetamide] | 404 nM | 9.72 nM | 33.3 nM | 203.5 °C | – |
| O=C(N[C@H]1CC[C@H](CCN2CCC(c3ccc(F)c4occc34)CC2)CC1)C1CCOCC1 [Example 65, Tetrahydro-pyran-4-carboxylic acid trans-(4-{2-[4-(7-fluoro-benzofuran-4-yl)-piperidin-1-yl]-ethyl}-cyclohexyl)-amide] | 361 nM | 34 nM | 11.6 nM | 208 °C | – |
| O=C(CC1CCOCC1)N[C@H]1CC[C@H](CCN2CCC(c3ccc(F)c4occc34)CC2)CC1 [Example 66, trans-N-(4-{2-[4-(7-Fluoro-benzofuran-4-yl)-piperidin-1-yl]-ethyl}-cyclohexyl)-2-(tetrahydro-pyran-4-yl)-acetamide] | 616 nM | 20.1 nM | 30.9 nM | 187.5 °C | – |
| COCCC(=O)N[C@H]1CC[C@H](CCN2CCC(c3ccc(F)c4occc34)CC2)CC1 [Example 67, trans-N-(4-{2-[4-(7-Fluoro-benzofuran-4-yl)-piperidin-1-yl]-ethyl}-cyclohexyl)-3-methoxy-propionamide] | 613 nM | 9.28 nM | 31 nM | 177 °C | – |
| O=C(N[C@H]1CC[C@H](CCN2CCC(c3cccc4c3CCO4)CC2)CC1)c1ccc(-n2cccn2)cc1 [Example 68, trans-N-(4-{2-[4-(2,3-Dihydro-benzofuran-4-yl)-piperidin-1-yl]-ethyl}-cyclohexyl)-4-pyrazol-1-yl-benzamide] | 1700 nM | 8.65 nM | 27.4 nM | 258.5 °C | – |
| Cc1nc(-c2ccc(C(=O)N[C@H]3CC[C@H](CCN4CCC(c5cccc6c5CCO6)CC4)CC3)cc2)no1 [Example 69, trans-N-(4-{2-[4-(2,3-Dihydro-benzofuran-4-yl)-piperidin-1-yl]-ethyl}-cyclohexyl)-4-(5-methyl-[1,2,4]oxadiazol-3-yl)-benzamide] | 3730 nM | 14.9 nM | 54.5 nM | 256.5 °C | – |
| CS(=O)(=O)c1ccc(C(=O)N[C@H]2CC[C@H](CCN3CCC(c4cccc5c4CCO5)CC3)CC2)s1 [Example 70, 5-Methanesulfonyl-thiophene-2-carboxylic acid trans-(4-{2-[4-(2,3-dihydro-benzofuran-4-yl)-piperidin-1-yl]-ethyl}-cyclohexyl)-amide] | 195 nM | 6.63 nM | 31.4 nM | 255 °C | – |
| CC(C)(C)c1ccc(C(=O)N[C@H]2CC[C@H](CCN3CCC(c4cccc5c4CCO5)CC3)CC2)cc1 [Example 71, trans-4-tert-Butyl-N-(4-{2-[4-(2,3-dihydro-benzofuran-4-yl)-piperidin-1-yl]-ethyl}-cyclohexyl)-benzamide] | – | 13.6 nM | 28.6 nM | 208 °C | inactive |
| CC(C)(O)CC(=O)N[C@H]1CC[C@H](CCN2CCC(c3cccc4c3CCO4)CC2)CC1 [Example 72, trans-N-(4-{2-[4-(2,3-Dihydro-benzofuran-4-yl)-piperidin-1-yl]-ethyl}-cyclohexyl)-3-hydroxy-3-methyl-butyramide] | 176 nM | 6.33 nM | 56.1 nM | 168 °C | – |
| CCCC(=O)N[C@H]1CC[C@H](CCN2CCC(c3cccc4c3CCO4)CC2)CC1 [Example 73, trans-N-(4-{2-[4-(2,3-Dihydro-benzofuran-4-yl)-piperidin-1-yl]-ethyl}-cyclohexyl)-butyramide] | 197 nM | 5.16 nM | 93.4 nM | 196 °C | – |
| O=C(CCC(F)(F)F)N[C@H]1CC[C@H](CCN2CCC(c3cccc4c3CCO4)CC2)CC1 [Example 74, trans-N-(4-{2-[4-(2,3-Dihydro-benzofuran-4-yl)-piperidin-1-yl]ethyl}-cyclohexyl)-4,4,4-trifluoro-butyramide] | 253 nM | 7.64 nM | 119 nM | 200 °C | – |
| CC(C)CCC(=O)N[C@H]1CC[C@H](CCN2CCC(c3cccc4c3CCO4)CC2)CC1 [Example 75, 4-Methyl-pentanoic acid trans-(4-{2-[4-(2,3-dihydro-benzofuran-4-yl)-piperidin-1-yl]-ethyl}-cyclohexyl)-amide] | 1070 nM | 9.97 nM | 72.9 nM | 188 °C | – |
| CCCCC(=O)N[C@H]1CC[C@H](CCN2CCC(c3cccc4c3CCO4)CC2)CC1 [Example 76, Pentanoic acid trans-(4-{2-[4-(2,3-dihydro-benzofuran-4-yl)-piperidin-1-yl]-ethyl}-cyclohexyl)-amide] | 411 nM | 4.57 nM | 103 nM | 186 °C | – |
| O=C(N[C@H]1CC[C@H](CCN2CCC(c3cccc4c3CCO4)CC2)CC1)c1ccc(N2CCS(=O)(=O)CC2)cc1 [Example 77, trans-N-(4-{2-[4-(2,3-Dihydro-benzofuran-4-yl)-piperidin-1-yl]-ethyl}-cyclohexyl)-4-(1,1-dioxo-1λ6-thiomorpholin-4-yl)-benzamide] | 329 nM | 5.62 nM | 33 nM | 282 °C | – |
| O=C(N[C@H]1CC[C@H](CCN2CCC(c3cccc4c3CCO4)CC2)CC1)c1ccc2ncccc2c1 [Example 78, Quinoline-6-carboxylic acid trans-(4-{2-[4-(2,3-dihydro-benzofuran-4-yl)-piperidin-1-yl]-ethyl}-cyclohexyl)-amide] | 3250 nM | 4.35 nM | 30.7 nM | 238 °C | – |
| O=C(N[C@H]1CC[C@H](CCN2CCC(c3cccc4c3CCO4)CC2)CC1)c1ccc2c(c1)OCO2 [Example 79, Benzo[1,3]dioxole-5-carboxylic acid trans-(4-{2-[4-(2,3-dihydro-benzofuran-4-yl)-piperidin-1-yl]-ethyl}-cyclohexyl)-amide] | 809 nM | 3.5 nM | 23 nM | 233 °C | – |
| O=C(CC1COC1)N[C@H]1CC[C@H](CCN2CCC(c3cccc4c3CCO4)CC2)CC1 [Example 80, trans-N-(4-{2-[4-(2,3-Dihydro-benzofuran-4-yl)-piperidin-1-yl]-ethyl}-cyclohexyl)-2-oxetan-3-yl-acetamide] | 196 nM | 4.27 nM | 55.5 nM | 197 °C | – |
| CC[C@@H](O)CC(=O)N[C@H]1CC[C@H](CCN2CCC(c3cccc4c3CCO4)CC2)CC1 [Example 81, (R)-3-Hydroxy-pentanoic acid trans-(4-{2-[4-(2,3-dihydro-benzofuran-4-yl)-piperidin-1-yl]-ethyl}-cyclohexyl)-amide] | 356 nM | 10 nM | 123 nM | 201 °C | – |
| COC(CC(=O)N[C@H]1CC[C@H](CCN2CCC(c3cccc4c3CCO4)CC2)CC1)OC [Example 82, trans-N-(4-{2-[4-(2,3-Dihydro-benzofuran-4-yl)-piperidin-1-yl]ethyl}-cyclohexyl)-3,3-dimethoxy-propionamide] | 366 nM | 4.78 nM | 69.9 nM | 240 °C | – |
| CN(C)C(=O)N[C@H]1CC[C@H](CCN2CCC(c3cccc4c3CCO4)CC2)CC1 [Example 83, trans-3-(4-{2-[4-(2,3-Dihydro-benzofuran-4-yl)-piperidin-1-yl]-ethyl}-cyclohexyl)-1,1-dimethyl-urea] | 69.9 nM | 44.2 nM | 121 nM | 260 °C | – |
| CC(C)=CC(=O)N[C@H]1CC[C@H](CCN2CCC(c3cccc4c3CCO4)CC2)CC1 [Example 84, 3-Methyl-but-2-enoic acid trans-(4-{2-[4-(2,3-dihydro-benzofuran-4-yl)-piperidin-1-yl]-ethyl}-cyclohexyl)-amide] | 73.9 nM | 6.36 nM | 59.8 nM | 177 °C | – |
